The source of these data is the NIST ThermoML archive (doi:10.1016/j.jct.2012.03.015).

± gives the expanded uncertainty stated by the source.

The first data set is described as follows: activity coefficient (dimensionless); of the first substance listed, at infinite dilution; xn = mol fraction of the nth substance listed. The settings on record: 318.15 K; 101 kPa; Liquid; Chromatography; x1 = 0.
Turning to `CCCO` [propan-1-ol] + COCC[N+]1(C)CCCC1.O=S(=O)([N-]S(=O)(=O)C(F)(F)F)C(F)(F)F, the activity coefficient was found to be 2.2 ± 0.15.

With `COC(C)(C)C` [2-methoxy-2-methylpropane] + COCC[N+]1(C)CCCC1.O=S(=O)([N-]S(=O)(=O)C(F)(F)F)C(F)(F)F, the activity coefficient came out at 2.76 ± 0.19.

On to `CC(C)=O` [acetone] + COCC[N+]1(C)CCCC1.O=S(=O)([N-]S(=O)(=O)C(F)(F)F)C(F)(F)F, for which the activity coefficient was determined as 0.47 ± 0.04.

As for `CCCC(C)=O` [pentan-2-one] + COCC[N+]1(C)CCCC1.O=S(=O)([N-]S(=O)(=O)C(F)(F)F)C(F)(F)F, the activity coefficient came to 0.83 ± 0.05.

Regarding `Cc1cccc(C)c1` [1,3-dimethylbenzene] + COCC[N+]1(C)CCCC1.O=S(=O)([N-]S(=O)(=O)C(F)(F)F)C(F)(F)F, the activity coefficient was found to be 2.14 ± 0.15.

As to `C1CCCCCCC1` [cyclooctane] + COCC[N+]1(C)CCCC1.O=S(=O)([N-]S(=O)(=O)C(F)(F)F)C(F)(F)F, the activity coefficient is 20.7 ± 1.4.

On to `C1CCCCC1` [cyclohexane] + COCC[N+]1(C)CCCC1.O=S(=O)([N-]S(=O)(=O)C(F)(F)F)C(F)(F)F, for which the activity coefficient was 11.1 ± 0.8.

As for `Cc1ccccc1` [toluene] + COCC[N+]1(C)CCCC1.O=S(=O)([N-]S(=O)(=O)C(F)(F)F)C(F)(F)F, the activity coefficient turned out to be 1.48 ± 0.1.

For `COC(C)=O` [methyl ethanoate] + COCC[N+]1(C)CCCC1.O=S(=O)([N-]S(=O)(=O)C(F)(F)F)C(F)(F)F, the activity coefficient turned out to be 0.71 ± 0.05.

As for `CCCCCCCCC` [nonane] + COCC[N+]1(C)CCCC1.O=S(=O)([N-]S(=O)(=O)C(F)(F)F)C(F)(F)F, the activity coefficient stood at 58.1 ± 4.

Regarding `CC(C)(C)O` [2-methylpropan-2-ol] + COCC[N+]1(C)CCCC1.O=S(=O)([N-]S(=O)(=O)C(F)(F)F)C(F)(F)F, the activity coefficient stood at 1.92 ± 0.13.

With `CO` [methanol] + COCC[N+]1(C)CCCC1.O=S(=O)([N-]S(=O)(=O)C(F)(F)F)C(F)(F)F, the activity coefficient was 1.37 ± 0.09.

Turning to `CCC(C)(C)C` [2,2-dimethylbutane] + COCC[N+]1(C)CCCC1.O=S(=O)([N-]S(=O)(=O)C(F)(F)F)C(F)(F)F, the activity coefficient turned out to be 15.1 ± 1.

For `CC(C)CC(C)(C)C` [2,2,4-trimethylpentane] + COCC[N+]1(C)CCCC1.O=S(=O)([N-]S(=O)(=O)C(F)(F)F)C(F)(F)F, the activity coefficient is 26.9 ± 1.8.

For `CC(C)O` [propan-2-ol] + COCC[N+]1(C)CCCC1.O=S(=O)([N-]S(=O)(=O)C(F)(F)F)C(F)(F)F, the activity coefficient is 2 ± 0.14.

Staying with this data set, now noted: 328.15 K; 101 kPa; Liquid; Chromatography; x1 = 0.
With `CCCO` [propan-1-ol] + COCC[N+]1(C)CCCC1.O=S(=O)([N-]S(=O)(=O)C(F)(F)F)C(F)(F)F, the activity coefficient came out at 2.02 ± 0.14.

For `COC(C)(C)C` [2-methoxy-2-methylpropane] + COCC[N+]1(C)CCCC1.O=S(=O)([N-]S(=O)(=O)C(F)(F)F)C(F)(F)F, the activity coefficient was 2.79 ± 0.19.

As to `CC(C)=O` [acetone] + COCC[N+]1(C)CCCC1.O=S(=O)([N-]S(=O)(=O)C(F)(F)F)C(F)(F)F, the activity coefficient is 0.48 ± 0.04.

Regarding `CCCC(C)=O` [pentan-2-one] + COCC[N+]1(C)CCCC1.O=S(=O)([N-]S(=O)(=O)C(F)(F)F)C(F)(F)F, the activity coefficient is 0.84 ± 0.05.

As to `Cc1cccc(C)c1` [1,3-dimethylbenzene] + COCC[N+]1(C)CCCC1.O=S(=O)([N-]S(=O)(=O)C(F)(F)F)C(F)(F)F, the activity coefficient is 2.16 ± 0.15.

Consider `C1CCCCCCC1` [cyclooctane] + COCC[N+]1(C)CCCC1.O=S(=O)([N-]S(=O)(=O)C(F)(F)F)C(F)(F)F, for which the activity coefficient came to 19 ± 1.3.

Turning to `C1CCCCC1` [cyclohexane] + COCC[N+]1(C)CCCC1.O=S(=O)([N-]S(=O)(=O)C(F)(F)F)C(F)(F)F, the activity coefficient stood at 10.4 ± 0.7.

As to `Cc1ccccc1` [toluene] + COCC[N+]1(C)CCCC1.O=S(=O)([N-]S(=O)(=O)C(F)(F)F)C(F)(F)F, the activity coefficient came out at 1.5 ± 0.1.

`COC(C)=O` [methyl ethanoate] + COCC[N+]1(C)CCCC1.O=S(=O)([N-]S(=O)(=O)C(F)(F)F)C(F)(F)F: the activity coefficient was determined as 0.73 ± 0.05.

As to `CCCCCCCCC` [nonane] + COCC[N+]1(C)CCCC1.O=S(=O)([N-]S(=O)(=O)C(F)(F)F)C(F)(F)F, the activity coefficient stood at 52.9 ± 3.6.

With `CC(C)(C)O` [2-methylpropan-2-ol] + COCC[N+]1(C)CCCC1.O=S(=O)([N-]S(=O)(=O)C(F)(F)F)C(F)(F)F, the activity coefficient is 1.79 ± 0.12.

For the molecule `CO` [methanol] + COCC[N+]1(C)CCCC1.O=S(=O)([N-]S(=O)(=O)C(F)(F)F)C(F)(F)F, the activity coefficient turned out to be 1.27 ± 0.08.

For the molecule `CCC(C)(C)C` [2,2-dimethylbutane] + COCC[N+]1(C)CCCC1.O=S(=O)([N-]S(=O)(=O)C(F)(F)F)C(F)(F)F, the activity coefficient was 14.4 ± 1.

As to `CC(C)CC(C)(C)C` [2,2,4-trimethylpentane] + COCC[N+]1(C)CCCC1.O=S(=O)([N-]S(=O)(=O)C(F)(F)F)C(F)(F)F, the activity coefficient worked out at 25.1 ± 1.7.

For `CC(C)O` [propan-2-ol] + COCC[N+]1(C)CCCC1.O=S(=O)([N-]S(=O)(=O)C(F)(F)F)C(F)(F)F, the activity coefficient came to 1.83 ± 0.12.

The data set is the same for the next values; noted with them: 338.15 K; 101 kPa; Liquid; Chromatography; x1 = 0.
For `CCCO` [propan-1-ol] + COCC[N+]1(C)CCCC1.O=S(=O)([N-]S(=O)(=O)C(F)(F)F)C(F)(F)F, the activity coefficient amounted to 1.86 ± 0.13.

As to `COC(C)(C)C` [2-methoxy-2-methylpropane] + COCC[N+]1(C)CCCC1.O=S(=O)([N-]S(=O)(=O)C(F)(F)F)C(F)(F)F, the activity coefficient amounted to 2.81 ± 0.19.

Regarding `CC(C)=O` [acetone] + COCC[N+]1(C)CCCC1.O=S(=O)([N-]S(=O)(=O)C(F)(F)F)C(F)(F)F, the activity coefficient came out at 0.49 ± 0.04.

As for `CCCC(C)=O` [pentan-2-one] + COCC[N+]1(C)CCCC1.O=S(=O)([N-]S(=O)(=O)C(F)(F)F)C(F)(F)F, the activity coefficient turned out to be 0.86 ± 0.06.

Consider `Cc1cccc(C)c1` [1,3-dimethylbenzene] + COCC[N+]1(C)CCCC1.O=S(=O)([N-]S(=O)(=O)C(F)(F)F)C(F)(F)F, for which the activity coefficient was found to be 2.17 ± 0.15.

On to `C1CCCCCCC1` [cyclooctane] + COCC[N+]1(C)CCCC1.O=S(=O)([N-]S(=O)(=O)C(F)(F)F)C(F)(F)F, for which the activity coefficient is 17.4 ± 1.2.

As to `C1CCCCC1` [cyclohexane] + COCC[N+]1(C)CCCC1.O=S(=O)([N-]S(=O)(=O)C(F)(F)F)C(F)(F)F, the activity coefficient stood at 9.69 ± 0.66.

Turning to `Cc1ccccc1` [toluene] + COCC[N+]1(C)CCCC1.O=S(=O)([N-]S(=O)(=O)C(F)(F)F)C(F)(F)F, the activity coefficient turned out to be 1.51 ± 0.1.

As to `COC(C)=O` [methyl ethanoate] + COCC[N+]1(C)CCCC1.O=S(=O)([N-]S(=O)(=O)C(F)(F)F)C(F)(F)F, the activity coefficient was 0.74 ± 0.05.

For `CCCCCCCCC` [nonane] + COCC[N+]1(C)CCCC1.O=S(=O)([N-]S(=O)(=O)C(F)(F)F)C(F)(F)F, the activity coefficient came to 48.4 ± 3.3.

On to `CC(C)(C)O` [2-methylpropan-2-ol] + COCC[N+]1(C)CCCC1.O=S(=O)([N-]S(=O)(=O)C(F)(F)F)C(F)(F)F, for which the activity coefficient amounted to 1.67 ± 0.11.

For `CO` [methanol] + COCC[N+]1(C)CCCC1.O=S(=O)([N-]S(=O)(=O)C(F)(F)F)C(F)(F)F, the activity coefficient amounted to 1.18 ± 0.08.

In the case of `CCC(C)(C)C` [2,2-dimethylbutane] + COCC[N+]1(C)CCCC1.O=S(=O)([N-]S(=O)(=O)C(F)(F)F)C(F)(F)F, the activity coefficient was 13.7 ± 0.9.

`CC(C)CC(C)(C)C` [2,2,4-trimethylpentane] + COCC[N+]1(C)CCCC1.O=S(=O)([N-]S(=O)(=O)C(F)(F)F)C(F)(F)F: the activity coefficient worked out at 23.7 ± 1.6.

Turning to `CC(C)O` [propan-2-ol] + COCC[N+]1(C)CCCC1.O=S(=O)([N-]S(=O)(=O)C(F)(F)F)C(F)(F)F, the activity coefficient amounted to 1.67 ± 0.11.
